What was measured:
[1] = system: adult αMHC-GFP TTFs; experiment: Flow cytometry of αMHC-GFP+ and cTnT+ TTFs after retroviral reprogramming; type: cell-based, mouse; conditions: ZNF281 added to 5F (6F), 7 days
Procedure: (§1) Retroviruses production, cellular reprogramming and treatment. For retroviruses production, Platinum E cells were seeded into culture dishes (1×10^5 cells/cm2) one day before transfection in DMEM supplemented with 10% FBS and 1% penicillin/streptomycin. Cells reached ˜80% confluency on the day of transfection. DNA plasmids were transfected into Platinum E cells using FuGENE 6 transfection reagent. Twenty-four hours after transfection, wild type or αMHC-GFP tail-tip fibroblasts were seeded into culture dishes or plates that were precoated with SureCoat (Cellutron) for one hour at a density of 6×10^4/cm^2. Forty-eight hours after transfection, polybrene was added to viral medium that was filtered through a 0.45-μm filter at a concentration of […]. The mixture replaced the growth medium in the cell culture plate with tail-tip fibroblasts. The viral infection was serially repeated twice. Twenty-four hours after the second infection, the viral medium was replaced with induction medium, composed of DMEM/199 (4:1), 10% conditioned medium obtained from neonatal rat cardiomyocyte culture, 10% FBS, 5% horse serum, 1% penicillin/streptomycin, 1% nonessential amino acids, 1% essential amino acids, 1% B-27, 1% insulin-selenium-transferrin, 1% vitamin mixture, and 1% sodium pyruvate (Invitrogen). Small molecule treatments were used throughout the reprogramming process […] (Sigma).
Flow Cytometry. For flow Cytometry, cells were trypsinized and fixed with fixation buffer (BD Bioscience) for 15 min on ice. Fixed cells were washed with Perm/Wash buffer (BD Bioscience) for three times. […] Cells were washed with Perm/Wash buffer, and then analyzed using FACS Caliber (BD Sciences) and FlowJo software.
ZNF281 enhances cardiac reprogramming of adult fibroblasts. […] The addition of ZNF281 to 5F increased the expression of GFP and cTnT in αMHC-GFP CFs evaluated by immunocytochemistry after 7 days of reprogramming (FIG. 10A). […]

[2] = system: adult TTFs; experiment: q-PCR of marker transcripts in retrovirally reprogrammed adult TTFs; type: cell-based, mouse; conditions: ZNF281 added to 5F, versus 5F
Procedure: as §1
Quantitative mRNA measurement. Total RNA was extracted using TRIzol (Invitrogen) according vender's protocol. RNAs were retrotranscribed to cDNA using iScript Supermix (Bio-Rad). qPCR was performed using Kapa Sybr Fast (Kapa Biosystems). mRNA levels were normalized by comparison to Gapdh mRNA.
(§2) ZNF281 enhances cardiac reprogramming of adult fibroblasts. PHF7 and ZNF281 were the two strongest activators identified from retroviral cDNA expression screen with 5F (FIG. 1D; Table S2). PHF7 is only expressed in the male germ line (Yang et al., 2012), whereas ZNF281 has a broad expression pattern with enriched expression in the heart (FIG. 51). The inventors therefore focused their initial attention on ZNF281 and explored its ability to enhance the activity of 5F. They refer to the reprogramming mix of 5F plus ZNF281 as 6F. […] The addition of ZNF281 to 5F increased the expression of GFP and cTnT in αMHC-GFP CFs evaluated by immunocytochemistry after 7 days of reprogramming (FIG. 10A). […]
Co-repression of inflammatory genes by ZNF281 and NuRD complex components. […] Addition of NuRD complex subunits also promoted cardiac reprogramming, as measured by flow cytometry using the cardiac markers αMHC-GFP and cTnT (FIG. 5B, FIGS. S2A-B).

[3] = system: adult cardiac fibroblasts (CF); experiment: Beating cells after 4 weeks of reprogramming; type: cell-based, mouse; conditions: ZNF281 in presence of 5F
Excerpt: as §2, with “6F. The inventors validated the results of their screen by assessing GFP and cTnT expression in αMHC-GFP TTFs following 5F and 6F reprogramming after 7 days (FIG. 3A). […] This TTF reprogramming efficiency using 6F is noteworthy when considering the relatively low statistical likelihood of each fibroblast taking up all five or six separate retroviruses encoding the reprogramming factors. The inventors also examined the expression of cardiac and fibroblast transcripts by q-PCR.” for “6F.”

[4] = molecular target: T1, Myc-tagged GATA4 (Homo sapiens, UniProt P43694); experiment: Co-immunoprecipitation in transfected HEK293 cells; type: binding
T1 construct: expressed in transfected cells; host or cells: HEK293
Procedure: (§3) Immunoprecipitation and Western Blot Analysis. Flag-epitope tag ZNF281 fusion protein were co-expressed with myc-epitope tag fusion GATA4, HAND2, MEF2C or TBX5 in HEK293 cells for 48 hours. Cell lysates were incubated overnight with 1 μg of mouse monoclonal anti-FLAG antibody (Sigma). The cell lysates were pulldown using magnetic Protein G Dynabeads (Invitrogen) and then the Flag-ZNF281 was eluted using 0.5 mg/ml of free Flag peptide (Sigma). The final elution and the input obtained before the immunoprecipitation was analyzed by SDS-PAGE western blot using a mouse monoclonal anti-Myc antibody (Novex) or mouse monoclonal anti-FLAG antibody (Sigma).
(§4) ZNF281 is a GATA4 coactivator. Previous reports described the influence of ZNF281 on pluripotency, stemness and epithelial-mesenchymal transition (EMT) (Hahn and Hermeking, 2014). However, the potential involvement of ZNF281 in cardiac development has not been previously explored. To begin to define the molecular mechanism whereby ZNF281 enhances cardiac reprogramming, the inventors performed co-immunoprecipitation assays with ZNF281 and each reprogramming transcription factor in transfected HEK293 cells.

[5] = system: Myc-tagged HAND2, MEF2c, or TBX5; experiment: Co-immunoprecipitation in transfected HEK293 cells; type: binding
Procedure: as §3, §4

T1 sequence (P43694 whole entry): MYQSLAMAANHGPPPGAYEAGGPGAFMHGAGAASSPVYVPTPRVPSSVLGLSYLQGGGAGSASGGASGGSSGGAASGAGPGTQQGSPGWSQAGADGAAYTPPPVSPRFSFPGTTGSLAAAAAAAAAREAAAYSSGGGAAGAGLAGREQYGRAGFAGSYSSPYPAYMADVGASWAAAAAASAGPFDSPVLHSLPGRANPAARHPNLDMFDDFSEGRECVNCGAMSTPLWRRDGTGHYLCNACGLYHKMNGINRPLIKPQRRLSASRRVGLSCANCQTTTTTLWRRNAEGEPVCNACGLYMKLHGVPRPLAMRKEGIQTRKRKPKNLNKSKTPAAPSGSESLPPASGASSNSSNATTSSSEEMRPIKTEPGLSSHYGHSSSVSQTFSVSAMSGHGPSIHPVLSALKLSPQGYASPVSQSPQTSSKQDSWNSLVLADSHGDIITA

With Zinc finger protein 281 [ZNF281] the “cTnT+ TTFs” value [1] was roughly 45%, the “αMHC-GFP+ TTFs” value [1] was roughly 33% and the “αMHC-GFP+/cTnT+ TTFs” value [1] was roughly 28%. The “decrease of Col1a2 expression” value [2] was roughly 30%, the “decrease of Sox9 expression” value [2] was roughly 60% and the “increase of Actc1 expression” value [2] was roughly 20 fold. The “increase of Myh6 expression” value [2] was roughly 120 fold, the “increase in the number of beating cells” value [3] was 2 fold and the “co-immunoprecipitation of FLAG-tagged ZNF281” value [4] was “co-immunoprecipitated”. For the same substance, the “co-immunoprecipitation of FLAG-tagged ZNF281” value [5] was “not with the other three factors”.
